Reference: article PMC5480290 (Journal of the American Chemical Society, 2016)

Legend:
PglBCj = type: biochemical, Campylobacter jejuni
LBT-PglBCl-Δ1-12 [1] = target: T1, LBT-PglBCl-Δ1-12 (Campylobacter lari, UniProt B9KDD4); type: binding; conditions: read-out: KD (glycan substrate); LRET titration, UndPPT-Fl from 0.014 to 5 μM, luminescence at 544 nm
LBT-PglBCl-Δ1-12 [2] = target: T1, LBT-PglBCl-Δ1-12; type: binding; conditions: Tb^3+ relative to LBT-PglB
LBT-PglBCj-Δ1-11 = LBT-PglBCj-Δ1-11 (Campylobacter jejuni subsp. jejuni serotype O:2, UniProt Q0P9C8); type: binding

| Molecule | tolerated as glycosyl donor substrate (PglBCj) | Kd (LBT-PglBCl-Δ1-12 [1]) [nM] | Tb^3+ saturation stoichiometry (LBT-PglBCl-Δ1-12 [2]) | Tb^3+ saturation stoichiometry (LBT-PglBCj-Δ1-11; Tb^3+ relative to LBT-PglB) | Kd (LBT-PglBCj-Δ1-11; read-out: Tb^3+ KD, estimated, sensitized luminescence at 544 nm) [nM] |
| --- | --- | --- | --- | --- | --- |
| Und-PP-diNAcBac-GalNAc-GalNAz conjugated to acetylene-545 fluorophore [UndPPT-Fl] | tolerates | 330 ± 70 | – | – | – |
| [Tb+3] [Tb^3+, terbium] | – | – | saturated at one molar equivalent | saturated at one molar equivalent | 2300 |
